Assay results published in PMC12030062, “From In Vitro Cytotoxicity to In Vivo Zebrafish Assays: A Study on 3,3-Dichloro β-, γ- and δ-Lactams and Their Biological Activity Profiles” (Pharmaceuticals, 2025).
≈ marks a conversion by molar mass, not a printed value.

What was measured:
[1] = system: murine Swiss albino fibroblast (3T3) cell line; test: Cell viability, NRU assay, 3T3; type: cell-based; conditions: Mus musculus, 24 h incubation, NRU endpoint
Procedure: Two different endpoints, 3-(4,5-dimethyl-2-thiazolyl)-2,5-diphenyltetrazolium bromide (MTT) and neutral red uptake (NRU), were used to assess differences in cell-induced cytotoxicity. […] In addition, NRU evaluates the interaction of these drugs with the plasmatic membrane. Cell responses were determined from the MTT [16] and NRU [17] assays, using the two proposed cell lines. Cytotoxicity assays were performed at concentrations equal to 80 and 250 µg/mL. The IC50 value, referring to the half-maximal inhibitory concentration, was determined as a key parameter in cytotoxicity studies (Table 1). It plays a crucial role in evaluating cell viability and assessing cellular responses to various drugs or toxins. For cases where IC50 values were below 80 µg/mL, additional studies at lower concentrations were conducted to accurately determine these values. […] The selectivity index (SI), used as a measurement of action against the tumor cell line in comparison with a normal cell line, was also included.
• In Vitro Assay Using Human Erythrocytes • - Acquisition and Extraction of the Erythrocytes Human blood samples were obtained from the Banc de Sang i Teixits de Barcelona (Spain) from the Catalan Department of Health. Blood was deposited in tubes with the anticoagulant EDTA-K3. Blood samples were centrifuged at 3000 rpm and 4 °C for 10 min (Megafuge 2.0 R. Heraeus Instruments, Hanau, Germany) to induce sedimentation. Plasma was extracted with a Pasteur pipette. Next, the residual pellet was washed with PBS at pH 7.4. This procedure was repeated three times to remove residual leukocytes and platelets and to concentrate the erythrocytes. Following the last wash, the erythrocyte suspension was diluted (1:1) in PBS at pH 7.4 to obtain a suitable erythrocyte suspension (cell density of 8 × 10^9 cell/mL). • - Hemolysis Assay The hemolysis assay determined the capability of different compounds to induce the hemolysis of the erythrocyte membrane. Stock solutions of each compound at 1 mg/mL in PBS at pH 7.4 were prepared. Different volumes (10–80 μL) were placed in polystyrene tubes, and an aliquot of 25 µL of the erythrocyte suspensions was added to each tube. The final volume was 1 mL. The tubes were incubated at room temperature under rotatory conditions. Then, the tubes were centrifuged at 10,000 rpm for 5 min. The supernatants’ absorbance at 540 nm (Shimadzu UV-160A, Shimadzu, Duisburg, Germany) was compared with that of the positive (erythrocytes hemolyzed with distilled water) and negative (erythrocyte suspension in PBS at pH 7.4) controls. The degree of hemolysis was determined using the following equation: Hemolysis (%) = 100 × (Abs − Abs0)/(Abs100 − Abs0) where Abs, Abs0, and Abs100 are the absorbance of the test samples, of the suspension treated with isotonic phosphate–buffered saline (PBS), and of the suspension of complete hemolysis treated with distilled water, respectively. • In Vitro Essay Using Cell Cultures The murine Swiss albino fibroblasts (3T3) and the squamous cell carcinoma (A431) cell lines were obtained from Celltec UB. Cells were grown in DMEM medium (4.5 g/L glucose) supplemented with 10% (v/v) FBS, 2 mM L-glutamine, 100 U/mL penicillin, and 100 µg/mL streptomycin at 37 °C with 5% CO2. Cells were routinely cultured in 75 cm^2 culture flasks and were trypsinized using trypsin–EDTA when the cells reached approximately 80% confluence. The trypan blue assay, which allows for the direct identification and enumeration of the live (unstained) and dead (blue) cells in the cell population, was used to evaluate the viability of the cells in the cell suspension obtained. • - Cell Viability Assays Cell lines of 3T3 (1 × 10^5 cells/mL) and A431 (5 × 10^4 cells/mL) were grown at defined densities in the 60 central wells of a 96-well plate. The cells were incubated for 24 h in 5% CO2 at 37 °C. […]

[2] = system: A431 cells; test: AO/EB double staining, cellular death events; type: cell-based, human; conditions: A431, 24 h, 10-160 µg/mL
[3] = Fish embryo acute toxicity (FET): lethality and dysmorphogenesis; type: in vivo; conditions: zebrafish, in vivo, exposure 2 to 72 hpf, read at 72 hpf
Procedure: (§1) Zebrafish provide a widely used vertebrate model for cost-effective, in vivo whole-organism screening.
(§2) (2 mM CaCl2•2 H2O; 0.5 mM MgSO4•7 H2O; 0.75 mM NaHCO3; 0.07 mM KCl). The fish were maintained at a temperature of 26 ± 1 °C on a 14-h light and 10-h dark cycle and were fed daily in the morning with Artemia salina, then with commercial flake food in the afternoon (SDS400, Special Diet Services, Dietex, France). For optimal Zebrafish reproduction, we used animals between 6 months and a year old. The day before the eggs were needed, males and females were placed in a breeding tank with plants at a 2:1 male-to-female ratio (usually using 8 males and 4 females in a big breeding tank). The following morning, eggs were collected 30 min after the lights were turned on. […] Fertilized, non-coagulated, and synchronously divided eggs were selected using a stereomicroscope (Motic SMZ168, Motic Hong Kong Ltd., Hong Kong, China) and transferred to 6-well plates (10 embryos/well). The embryos were exposed to freshly prepared tested concentrations of the compound in 0.3× Danieau’s solution. The chemical stock solution was prepared in 100% dimethylsulfoxide (DMSO) and subsequently diluted in Danieau’s buffer with a final DMSO concentration of 1% (v/v). Testing was carried out using five concentrations with a negative control of solvent with 1% of DMSO. Embryos were incubated at 27 ± 1 °C with a light:dark cycle of 14:10 h until 72 h post-fertilization (hpf) under semi-static conditions, as exposure solutions were renewed with freshly prepared solutions every 24 h. • Lethality and dysmorphogenesis evaluation At 24, 48, and 72 hpf, the embryos were observed under a stereomicroscope to assess lethality. […] At the end of the test, dysmorphogenesis was evaluated in the live embryos only. The average lethality and dysmorphogenesis were calculated for 10 embryos per concentration, followed by averaging the results of at least three independent experiments. […] Subsequently, the TER test was conducted according to the protocol described by Guzman et al.. […] The distance was averaged and converted from pixels to millimeters. This assay was performed only on larvae from concentration groups where both the lethality and dysmorphogenesis were less than 20%. Six larvae per concentration group were evaluated in at least three independent experiments. • Statistical analysis Statistical analysis was performed using GraphPad Prism v.10.0.2. The TER test was analyzed using a one-way ANOVA and a post hoc multiple-comparison Dunnett test. The significance threshold was established at p < 0.05.

[4] = system: Zebrafish embryos; test: as above; type: in vivo
Procedure: as §1, §2

CC(C)(C)N1C(=O)C(Cl)(Cl)C1c1ccccc1 (centres unmarked) [Compound 1]
IC50 [1]: > 250 µg/mL
mode of cell death [2]: induces cell death primarily via apoptosis
LC50 [3]: 14.9 µg/mL (≈ 54.8 µM)
EC50 ([4]; Danio rerio, read-out: EC50 (dysmorphogenesis)): 5.23 µg/mL (≈ 19.2 µM)
teratogenic index (TI) ([4]; TI = LC50/EC50): 2.85
teratogenicity classification ([4]; TI > 2): potential teratogen
morphological abnormalities ([4]; embryos exposed 2 to 72 hpf): pericardial edema, large yolk sacs, and flexion abnormalities
LC50 (lethality) ([4]; exposure 2 to 72 hpf, read at 72 hpf): 14.9 µg/mL (≈ 54.7 µM)
